From ChEMBL document CHEMBL1123116, “N-[[(Mercaptoacetyl)amino]benzoyl]glycines as mucolytic agents” (1985)

Assays:
Assay type in all cases: functional
Homo sapiens [1] = species: Homo sapiens; assay: Percent viscosity reduction after 15 min was tested for in vitro mucolytic activity using pooled human sputum adjusted to pH 7.5 and compared with saline by 0.03 M solution
Homo sapiens [2] = species: Homo sapiens; assay: Percent viscosity reduction after 10 min was tested for in vitro mucolytic activity using pooled human sputum adjusted to pH 7.5 and compared with saline by 0.03 M solution of the compound
Homo sapiens [3] = species: Homo sapiens; assay: Percent viscosity reduction after 15 min was tested for in vitro mucolytic activity using pooled human sputum adjusted to pH 7.5 and compared with saline by 0.03 M solution of the compound
Homo sapiens [4] = species: Homo sapiens; assay: Percent viscosity reduction after 5 min was tested for in vitro mucolytic activity using pooled human sputum adjusted to pH 7.5 and compared with saline by 0.03 M solution of the compound
Homo sapiens [5] = species: Homo sapiens; assay: Percent viscosity reduction after 15 min was tested for in vitro mucolytic activity using pooled human sputum adjusted to pH 7.5 and compared with 0.06 M NAC

Q: `NCCN.O=C(O)CNC(=O)c1cccc(NC(=O)CS)c1` was tested. Which Viscosity reduction (Homo sapiens [1]) did it give?
A: The Viscosity reduction was 44%.

Q: Which results are given for `O=C(O)CNC(=O)c1cccc(NC(=O)CS)c1`?
A: Viscosity (Homo sapiens [2]): 84%; Viscosity (Homo sapiens [3]): 90%; Viscosity reduction (Homo sapiens [1]): 60%; Viscosity (Homo sapiens [4]): 64%

Q: Which Viscosity reduction (Homo sapiens [1]) does the source give for `O=C([O-])CNC(=O)c1cccc(NC(=O)CS)c1.[Na+]` here?
A: The Viscosity reduction was 56%.

Q: What does the source list for `O=C(O)CNC(=O)c1ccc(NC(=O)CS)cc1`?
A: Viscosity reduction (Homo sapiens [1]): 73%; Viscosity (Homo sapiens [5]): 15%

Q: For `N.O=C(O)CNC(=O)c1cccc(NC(=O)CS)c1`, which Viscosity reduction (Homo sapiens [1]) is on record?
A: Its Viscosity reduction is 59%.

Q: With `CC(=O)N[C@@H](CS)C(=O)O` [ACETYLCYSTEINE] as the compound, how does the Viscosity (Homo sapiens [2]) read?
A: The Viscosity was 38%.

Q: And the Viscosity (Homo sapiens [3])?
A: The Viscosity was 31%.

Q: What about the Viscosity (Homo sapiens [4]) of the same compound?
A: The Viscosity was 27%.
